Test results: a melting point compilation (Tetko et al.; mined from patent text by program, amines drawn as free bases though some values may be those of a salt)

SMILES | melting point [°C]
CCCCCCCCc1cc2c(cc1/C(C)=C/c1ccc(C(=O)OC)cc1)C(C)(C)CCCS2(=O)=O | 85 to 86
CCC1CCC(=O)C=C1c1ccc(OCC(=O)O)cc1Cl (stereo unspecified) | 138 to 140
CC1(C)CCC(C)(C)c2cc3cc(-c4csc(C(=O)O)c4)ccc3cc21 | 207 to 208
COc1cc(Nc2nccc(-c3ccc(N(C)CCN(C)C)nc3)n2)cc(OC)c1OC | 97 to 98
CN(Cc1ccccc1)C1(CNC(=O)c2ccc(Cl)c(Cl)c2)CCCCC1 | 139 to 145
CC(O)=C1C(=O)CC(c2ccccc2C)CC1=O (stereo unspecified) | 78 to 81
O=C1c2c(Cl)cccc2-n2cnc(C#Cc3cccc(Cl)c3)c2[C@@H]2CCCN12 | 207 to 209
Cc1cc(C)c2c(c1O)C(=O)C(C)(C)C2 | 28 to 30
Cc1cc(SCc2sc(-c3ccc(C(F)(F)F)cc3)nc2C)cc(C)c1OCC(=O)O | 157 to 158
O=C1NC(=S)NC(=O)C1=Cc1ccc([N+](=O)[O-])s1 | 285
CSc1ncc(C#N)c(NC(C)C)n1 | 121 to 122
CC(c1cc(Cl)cc([N+](=O)[O-])c1O)c1cc(Br)cc([N+](=O)[O-])c1O (stereo unspecified) | 161
O=C1O[C@@H](COc2cnsn2)CN1c1ccc(C2=CCOCC2)c(F)c1 | 146 to 148
CC(=O)c1cnc2c(n1)CCCC2 | 42 to 45
Cc1nc(-c2ccc(C(=O)O)s2)no1 | 218 to 220
CN1CCc2c(Cl)csc2C(c2ccccc2)C1 (stereo unspecified) | 67
CCOC(=O)C1=C(COCc2nnnn2CCNc2nc(N)n[nH]2)NC(C)=C(C(=O)OC)C1c1cccc(Cl)c1Cl (stereo unspecified) | 70
Cn1ccc2ccccc2c(=NO)c1=O | 225 to 226
O=[N+]([O-])CCc1cccc2ccccc12 | 45 to 46

SMILES | melting point [°C]
CCCCCCCCCc1ccc(C(Sc2cccc(NC(=O)CC(=O)OC)c2)C(=O)CCCC(=O)OC)cc1 (stereo unspecified) | 88 to 91
COc1sc(-c2ccc(NS(=O)(=O)c3sc4ccc(F)cc4c3C)c(S(C)(=O)=O)c2)nc1C | 216 to 217
CCN(C(=O)N(C)C)c1nnc(S(=O)(=O)N(C)C)s1 | 75 to 77
CN(C)C=C(C#N)C(=O)Nc1cc(F)ccc1F | 175 to 176
CC(C)c1ccc(S(=O)(=O)Nc2ccc(C(F)(F)F)cc2I)cc1 | 101
COc1c(Cl)ccc(-c2nc(C(=O)OC(C)C)cc(Cl)c2Cl)c1F | 124 to 128
CCCCCc1c(C(=O)NN2CC=CCC2)nn(-c2ccc(Cl)cc2Cl)c1-c1ccc(Cl)cc1 | 150
O=c1[nH]cc(F)c(=S)[nH]1 | 254 to 255
OCCn1cc(-c2ccc3nnn(Cc4c(F)ccc(F)c4Cl)c3n2)cn1 | 143 to 145
CCCCCCC(C)(C)c1cc(O)cc(O)c1 | 93 to 95
O=C(O)C1COc2cc(Cl)c(Cl)cc2O1 (stereo unspecified) | 155 to 158
Cc1cccc(C)c1NC(=O)c1ccc(S(C)(=O)=O)cc1 | 164 to 166
Nc1cc(CCC(=O)NC23CC4CC(CC(C4)C2)C3)ccc1O | 79 to 80
COCC(C#N)=Cc1cc(OC)c(OC)c(OC)c1 | 79 to 81
COC(=O)C1=C(C)NC(C)=C(C(=O)OC)C1c1cccc(N(C)C(=NC#N)NCCCN2CCC(c3ccccc3)CC2)c1 | 85 to 90
C[C@H]1CCCC(C)(C)[C@@H]1[C@@H](O)c1cccc(Cl)c1 | 58 to 60
CSC(=C[N+](=O)[O-])N(C)C | 60
CCN(CC)C(=O)n1nc(Oc2ncc(C(F)(F)F)cc2Cl)cc1C(F)(F)F | 58 to 60

Now from value to molecule:

melting point [°C] | SMILES
157 to 158 | O=C1c2ccccc2C(=O)N1CCOc1ccncc1
58 to 60 | CCOC(=O)C(Cc1ccc(OCCN2CCC(C)(C)c3cc(C(=NOC)c4ccccc4)ccc32)cc1)OCC(F)(F)F (stereo unspecified)
266 | CC(=O)Nc1ccc(C#Cc2cnn3c(C(F)(F)F)cc(-c4ccc(C(F)(F)F)cc4)nc23)cn1
153 to 155 | O=C1c2cccc3cccc(c23)C(O)N1CCN1CCC(Cc2ccccc2)CC1 (stereo unspecified)
219 to 221 | O=C(c1ccc(-c2cccc(C(F)(F)F)c2)o1)N1Cc2c([nH]c3ccccc3c2=O)C1c1ccc2c(c1)OCO2 (stereo unspecified)
> 260 | Nc1ccc(CCNC(=O)Nc2ccc(Nc3ccccc3)cc2)cc1
166 to 169 | O=C(CCl)NC(c1ccccc1)C(O)c1ccccc1 (stereo unspecified)
228 to 229 | Cc1ccc(S(=O)(=O)n2ccc(-c3ccc(F)cc3)c2-c2ccc(S(C)(=O)=O)cc2)cc1
228 to 230 | CC(C)Cn1c(CN)c(-c2ccccc2)c2cc(/C=C/C(N)=O)ccc2c1=O
128 to 129 | O=C(Cn1ccnc1)c1cccc(-c2ccccc2)c1
147 to 150 | CN(C)/C=N/c1nc(=O)n(C(=O)NCc2ccccc2)cc1F
63 to 65 | Fc1ccc(-n2ccc3cc(OCCCCCCCBr)ccc32)cc1
122 to 124 | COc1ccc(C(O)CN2CCN(c3cccccc3=O)CC2)cc1OC (stereo unspecified)
220 | Cn1c(C(=O)O)cc(=O)c2oc3ccccc3c(=O)c21
135 to 136 | Cc1ccc(-c2nc3ncccc3o2)cc1
205 to 208 | COc1ccc(-c2ccc(CCNC(=O)c3cc(Cl)ccc3OC)cc2S(N)(=O)=O)cc1
104 to 105 | CCOC(=O)/C=C/c1cn(Cc2ccc(OCc3csc(-c4ccccc4)n3)cc2)nc1-c1cccs1

melting point [°C] | SMILES
165 to 168 | CC(C)(O)CN1CCN(c2ccc3nc(-c4cccs4)c(-c4ccncc4)n3n2)CC1
124 | O=C(NCCOc1cccc2c1OCC(CO)O2)c1ccc(F)cc1 (stereo unspecified)
157 | COC(=O)c1cccc(C(=O)Nc2cccc3cc(Br)cnc23)c1
185 to 186 | COC(=O)C1(c2c(F)cccc2F)Nc2ccccc2N1Cc1c(F)cccc1F (stereo unspecified)
144 to 145 | CCOC(=O)C(=C(c1ccc(F)cc1)c1ccc(F)cc1)c1nnnn1C
129 to 130 | N#Cc1cccc(Oc2c(-c3ccccc3)cccc2-c2ccccc2)c1C#N
153 to 154 | CCC1(C)OC(c2ccc(S(N)(=O)=O)cc2)=C(c2ccccc2)C1=O (stereo unspecified)
84 to 85.5 | c1ccc(-c2nc(-c3ccccc3)c(-c3ccccc3)s2)cc1
178 | O=c1ccc(-c2ccc(OC(F)(F)F)cc2)n[nH]1
145 to 147 | CC(C)c1c(/C=C/I)c(-c2ccc(F)cc2)nc2ccccc12
145 to 146 | CN(C)c1ncc2c(=O)n(Cc3ccccn3)sc2n1
254 to 255 | O=c1[nH]c(=Cc2ccc(OCc3ccncc3)cn2)c(=O)[nH]c1=Cc1ccccc1
86 to 87 | COC(=O)C(=O)c1ccc(OCCCC(=O)c2ccc3ccccc3c2)cc1
187 | Cc1c(NC(=O)c2ccc(CC(=O)c3ccccc3)cc2)ccc2cc(CN3CCCC3)cnc12
161 to 163 | Cc1c(NC(=O)c2ccc(-c3ccc(F)cc3)cc2)ccc2cc(CN(C)C)cnc12
165 to 175 | O=C(N[C@@H](Cc1ccc(O)cc1)C(=O)O)C(=Cc1ccccc1)NC(=O)C(F)(F)F
70 to 75 | COC(=O)Cc1ccc(OCCNC(=O)C2Cc3ccccc3N2S(=O)(=O)c2ccc(-c3ccc(F)cc3OC)cc2)cc1 (stereo unspecified)
